Experimental findings from ChEMBL document CHEMBL2384978, “The opposite effect of isotype-selective monoamine oxidase inhibitors on adipogenesis in human bone marrow mesenchymal stem cells” (2013) are described below.

Type in all cases: functional
The nature of experiment [1]: Induction of adipogenesis in human bone marrow MSC assessed as formation of intracellular lipid droplets at 10 uM after 15 days by oil red O staining in IDX condition relative to control.
Experiment [2] has as its system MSC. Put plainly: Induction of adipogenesis in human bone marrow MSC assessed as adiponectin production at 30 uM after 14 days by ELISA relative to control. For orientation: ELISA stands for enzyme-linked immunosorbent assay.
The subject of experiment [3] is MSC. The experiment is described as follows: Induction of SSAO-mediated adipogenesis in human bone marrow MSC assessed as adiponectin level at 0.1 to 1 mM after 14 days by ELISA.
The test system of experiment [4] is MSC. The experiment is described as follows: Induction of adipogenesis in human bone marrow MSC assessed as adiponectin production after 14 days by ELISA in IDX condition.
In experiment [5] the test system is MSC. The experiment is described as follows: Induction of adipogenesis in human bone marrow MSC assessed as AOC3 up-regulation by RT-PCR analysis.
Experiment [6] relates to MSC. Put plainly: Induction of adipogenesis in human bone marrow MSC assessed as MAO-A up-regulation by RT-PCR analysis.
The subject of experiment [7] is MSC. The experiment is described as follows: Induction of adipogenesis in human bone marrow MSC assessed as adiponectin up-regulation by RT-PCR analysis.
For experiment [8], the system named is MSC. Put plainly: Induction of adipogenesis in human bone marrow MSC assessed as PPARgamma up-regulation by RT-PCR analysis.
For experiment [9], the system named is MSC. The experiment is described as follows: Induction of adipogenesis in human bone marrow MSC assessed as AOC2 up-regulation by RT-PCR analysis.
Experiment [10] concerns MSC. Put plainly: Induction of adipogenesis in human bone marrow MSC assessed as MAO-B up-regulation by RT-PCR analysis.

Molecules are shown by their SMILES. Calls of active or inactive are those of the source. The rule behind the calls is not given here.

For the molecule `C#CCN(C)Cc1ccccc1` [PARGYLINE], the Activity in experiment [1] is given as 54%. Moreover, in the experiment on MSC [2], the outcome was Active.

With `N[C@@H]1C[C@H]1c1ccccc1.N[C@H]1C[C@@H]1c1ccccc1` (racemic) [TRANYLCYPROMINE], the Activity in [1] is on record as 79%.

On to `NNC(N)=O`, for which the outcome in the experiment on MSC [3] was inactive.

With `NNCCc1ccccc1` [PHENELZINE], in [1], the Activity was 85%.

For the molecule `C#CCN(C)[C@H](C)Cc1ccccc1` [SELEGILINE], the Activity in experiment [1] is 105%; with MSC [4], “Dose-dependent effect”.

`O=C(NCCN1CCOCC1)c1ccc(Cl)cc1` [MOCLOBEMIDE]: the Activity is 146% in experiment [1] and “Dose-dependent effect” in the experiment on MSC [4].

As for `COc1ccc(Cl)cc1C(=O)NCCc1ccc(S(=O)(=O)NC(=O)NC2CCCCC2)cc1` [GLYBURIDE], the result in the experiment with MSC [5], in the experiment with MSC [6], in the experiment with MSC [7], with MSC [8], with MSC [9] and in the experiment with MSC [10] was Active. Moreover, in [1], the Activity worked out at 134%.

On to `NCCNC(=O)c1ncsc1-c1cccc(F)c1`, for which the Activity in experiment [1] stood at 49%. In addition, the result in the experiment on MSC [2] was Active.
